Measurements taken from the CheMixHub ionic liquid set.

Assay: xn = mol fraction of the nth substance listed

CCC[N+]1(C)CCCC1.O=S(=O)([N-]S(=O)(=O)C(F)(F)F)C(F)(F)F + CS(C)=O
electrical conductivity [S/m], 101 kPa, frequency 0.0005 MHz
Conditions	278.15 K	288.15 K	298.15 K	308.15 K	318.15 K	328.15 K	338.15 K	348.15 K	358.15 K
x1 = 0.05995	–	0.967	1.18	1.4	1.62	1.85	2.08	2.31	2.54
x1 = 0.1606	0.953	1.21	1.5	1.79	2.01	2.39	2.76	3.05	3.39
x1 = 0.3647	0.66	0.879	1.09	1.37	1.65	1.9	2.12	2.41	2.75

viscosity [mPa·s], 101 kPa
Conditions	278.15 K	288.15 K	298.15 K	308.15 K	318.15 K	328.15 K	338.15 K	348.15 K	358.15 K
x1 = 0.05995	–	3.56	2.86	2.367	1.965	1.682	1.446	1.27	1.126
x1 = 0.1606	7.89	5.88	4.56	3.66	2.99	2.51	2.138	1.847	1.623
x1 = 0.3647	20.1	13.94	10.18	7.75	6.1	4.93	4.08	3.44	2.95
x1 = 1	163.6	96.2	60.6	40.8	28.9	21.3	16.29	12.82	10.34

CCCC[n+]1ccn(C)c1.F[B-](F)(F)F + CCCC[n+]1ccn(C)c1.COS(=O)(=O)[O-]
101 kPa, x1 = 1
Conditions	viscosity [mPa·s]
302.15 K	88.7
305.15 K	76.8

CC[n+]1ccn(C)c1.N#C[N-]C#N + CCO
viscosity [mPa·s]
Conditions	298.15 K	303.15 K	308.15 K	313.15 K	318.15 K	323.15 K	328.15 K	343.15 K
100 kPa, x1 = 0.0997	1.85	1.71	1.56	1.44	1.33	1.23	–	–
100 kPa, x1 = 0.196	2.7	2.47	2.25	2.07	1.9	1.75	–	–
100 kPa, x1 = 0.3001	3.66	3.31	3.02	2.76	2.53	2.33	–	–
100 kPa, x1 = 0.3945	4.62	4.16	3.78	3.45	3.16	2.9	–	–
100 kPa, x1 = 0.4997	5.82	5.23	4.72	4.29	3.92	3.59	–	–
100 kPa, x1 = 0.5993	7.11	6.35	5.71	5.16	4.7	4.29	–	–
100 kPa, x1 = 0.7013	8.69	7.71	6.89	6.19	5.61	5.1	–	–
100 kPa, x1 = 0.8014	10.45	9.21	8.17	7.3	6.57	5.95	–	–
100 kPa, x1 = 0.8929	11.97	10.48	9.25	8.23	7.37	6.65	–	–
100 kPa, x1 = 1	13.09	11.39	10	8.86	7.92	7.13	–	–
101 kPa, x2 = 0	–	–	–	10.07	–	–	7.26	–
101 kPa, x2 = 0.1981	–	–	–	–	–	–	–	4.25
101 kPa, x2 = 0.3596	–	–	–	5.68	–	–	4.29	–
101 kPa, x2 = 0.6028	4.42	–	–	–	–	–	–	–
101 kPa, x2 = 0.7678	2.72	–	–	–	–	–	–	–

[Br][Al]([Br])[Br] + CC[n+]1ccn(C)c1.[Br-]
Conditions	electrical conductivity [S/m]
298.15 K, 101.3 kPa, x1 = 0.35	0.625

NC(CO)CO + CC[n+]1ccn(C)c1.[Cl-]
101 kPa, x2 = 0.667
Conditions	viscosity [mPa·s]
298.15 K	297
303.15 K	214
313.15 K	115.9
323.15 K	64.5
333.15 K	41.4

CC[n+]1ccn(C)c1.N#C[N-]C#N + CCCCO
100 kPa
Conditions	viscosity [mPa·s]
298.15 K, x1 = 0.3006	3.16
303.15 K, x1 = 0.9012	8.7
308.15 K, x1 = 0.3006	2.29
308.15 K, x1 = 0.4008	2.52
308.15 K, x1 = 0.7012	4.34
308.15 K, x1 = 0.8016	5.5
313.15 K, x1 = 0.2007	1.97
313.15 K, x1 = 0.3006	2.03
318.15 K, x1 = 0.6014	2.39
323.15 K, x1 = 0.2007	1.56
323.15 K, x1 = 0.4008	1.71

CCCC[n+]1ccn(C)c1.F[B-](F)(F)F + ClCCl
298.15 K, 101 kPa, x2 = 0
Conditions	electrical conductivity [S/m]	viscosity [mPa·s]
–	0.194	116

CCC[N+]1(C)CCCC1.O=S(=O)([N-]S(=O)(=O)C(F)(F)F)C(F)(F)F + CC#N
electrical conductivity [S/m], 101 kPa, frequency 0.0005 MHz
Conditions	278.15 K	288.15 K	298.15 K	308.15 K	318.15 K	328.15 K
x1 = 0.03242	2.26	2.44	2.63	2.78	2.91	3.13
x1 = 0.09134	2.76	3.03	3.31	3.54	3.77	3.92
x1 = 0.2317	2.01	2.35	2.69	2.97	3.28	3.53

viscosity [mPa·s], 101 kPa
Conditions	278.15 K	288.15 K	298.15 K	308.15 K	318.15 K	328.15 K	338.15 K	348.15 K	358.15 K
x1 = 0.03242	0.649	0.581	0.516	0.46	0.405	–	–	–	–
x1 = 0.09134	1.145	0.993	0.877	0.797	0.706	0.621	–	–	–
x1 = 0.2317	3.57	2.91	2.44	2.079	1.798	1.592	–	–	–
x1 = 1	163.6	96.2	60.6	40.8	28.9	21.3	16.29	12.82	10.34

CCCC[n+]1ccn(C)c1.F[B-](F)(F)F + NC(N)=O + O
Conditions	viscosity [mPa·s]
298.15 K, 100 kPa, x2 = 0, x3 = 0.9487	1.99
